For 3 compounds, growth, % of control and Activity results are on record in ChEMBL document CHEMBL3098042, “New carbocyclic nucleoside analogues with a bicyclo[2.2.1]heptane fragment as sugar moiety; synthesis, X-ray crystallography and anticancer activity” (2014).

The subject of experiment [1] is SK-MEL-5. The experiment in a line: Growth inhibition of human SK-MEL-5 cells at 10^-5 M relative to control. It is filed as functional. To be noted: values are per cent of control.
In experiment [2] the test system is K562. The experiment in a line: Growth inhibition of human K562 cells at 10^-5 M relative to control. The conditions noted are these: values are per cent of control. In kind it is functional.
The nature of experiment [3]: Growth inhibition of human OVCAR5 cells at 10^-5 M relative to control. In kind it is functional. To be noted: OVCAR-5, values are per cent of control.
For experiment [4], the system named is LOX IMVI. The experiment in a line: Growth inhibition of human LOXIMVI cells at 10^-5 M relative to control. It is filed as functional. The conditions noted are these: values are per cent of control.
Experiment [5] concerns NCI-H322M. The experiment in a line: Growth inhibition of human NCI-H322M cells at 10^-5 M relative to control. In kind it is functional. To be noted: values are per cent of control.
Experiment [6] can be described thus: Growth inhibition of human NCI-ADR-RES cells at 10^-5 M relative to control. The conditions noted are these: values are per cent of control. It is filed as functional.
Experiment [7] has as its system HCT-15. Kind of experiment: Growth inhibition of human HCT15 cells at 10^-5 M relative to control. In kind it is functional. The conditions noted are these: values are per cent of control.
In experiment [8] the test system is T47D. The experiment in a line: Growth inhibition of human T47D cells at 10^-5 M relative to control. The conditions noted are these: values are per cent of control. In kind it is functional.
In experiment [9] the test system is NCI-H522. Kind of experiment: Growth inhibition of human NCI-H522 cells at 10^-5 M relative to control. In kind it is functional. To be noted: values are per cent of control.
Experiment [10] in a line: Growth inhibition of human RXF393 cells at 10^-5 M relative to control. In kind it is functional. To be noted: RXF 393, values are per cent of control.
Experiment [11] concerns NCI-H226. Kind of experiment: Growth of human NCI-H226 cells at 10^-5 M relative to control.
Experiment [12] concerns CCRF-CEM. Kind of experiment: Growth inhibition of human CCRF-CEM cells at 10^-5 M relative to control. It is filed as functional. The conditions noted are these: values are per cent of control.
Experiment [13] is described as follows: Growth inhibition of human UO31 cells at 10^-5 M relative to control. In kind it is functional. To be noted: UO-31, values are per cent of control.
The subject of experiment [14] is SR. Kind of experiment: Growth inhibition of human SR cells at 10^-5 M relative to control. In kind it is functional. To be noted: values are per cent of control.
The subject of experiment [15] is HCT-116. Kind of experiment: Growth inhibition of human HCT116 cells at 10^-5 M relative to control. It is filed as functional. The conditions noted are these: values are per cent of control.
Experiment [16] deals with MDA-MB-468. The experiment in a line: Growth inhibition of human MDA-MB-468 cells at 10^-5 M relative to control. In kind it is functional. To be noted: values are per cent of control.
In experiment [17] the test system is CAKI-1. Kind of experiment: Growth inhibition of human CAKI-1 cells at 10^-5 M relative to control. It is filed as functional. To be noted: values are per cent of control.
The subject of experiment [18] is MCF7. The experiment in a line: Growth inhibition of human MCF7 cells at 10^-5 M relative to control. In kind it is functional. The conditions noted are these: values are per cent of control.
The test system of experiment [19] is HL-60(TB). Kind of experiment: Growth inhibition of human HL-60(TB) cells at 10^-5 M relative to control. In kind it is functional. The conditions noted are these: values are per cent of control.
The subject of experiment [20] is MOLT-4. The experiment in a line: Growth inhibition of human MOLT4 cells at 10^-5 M relative to control. To be noted: values are per cent of control. It is filed as functional.
Experiment [21] deals with IGROV-1. Kind of experiment: Growth inhibition of human IGROV1 cells at 10^-5 M relative to control. To be noted: values are per cent of control. It is filed as functional.
Experiment [22] deals with SNB-75. The experiment in a line: Growth inhibition of human SNB75 cells at 10^-5 M relative to control. In kind it is functional. The conditions noted are these: values are per cent of control.
Experiment [23] deals with PC-3. Kind of experiment: Growth inhibition of human PC3 cells at 10^-5 M relative to control. In kind it is functional. The conditions noted are these: values are per cent of control.
A short description of experiment [24]: Anticancer activity against human U937 cells assessed as decrease in uridine incorporation at 30 uM relative to control. More on the design: scale not given: the % may be the effect or the level left. In kind it is functional, U-937.

For `OC[C@H]1[C@@H]2C[C@H](n3cnc4c(N5CCOCC5)ncnc43)[C@H]1C[C@@H]2Cl`, the growth, % of control at 10 µM in experiment [1] was 99.8%; in [2] it was 90.7%; in [3], 93%; in experiment [4], 95.8%; in experiment [5], 100%; in experiment [6], 99%. Also, the growth, % of control at 10 µM was 93% in [7]; 100% in experiment [8]; 94.5% in experiment [9]; 113% in experiment [10]; 108% in experiment [11]; 84.9% in [12]. Besides, the growth, % of control at 10 µM in experiment [13] was determined as 76.9%; in experiment [14] it was 82.3%; in [15], 89.6%; in experiment [16], 110%; in experiment [17] it was 87.2%; in experiment [18], 99.9%. Also, the growth, % of control at 10 µM came to 91.9% in experiment [19]; 81.1% in experiment [20]; 92.3% in experiment [21]; 85.6% in experiment [22]; 98.5% in experiment [23].
In the case of `Nc1ncnc2c1ncn2[C@H]1C[C@H]2[C@H](CO)[C@@H]1C[C@@H]2Cl`, the growth, % of control at 10 µM in experiment [1] stood at 96.5%; in [2], 97.1%; in [3] it was 90.1%; in [4], 91.8%; in experiment [5], 102%; in [6], 103%. For the same compound, the growth, % of control at 10 µM in experiment [7] was 97.5%; in experiment [8], 102%; in experiment [9], 98.7%; in experiment [10] it was 106%; in experiment [11], 110%; in experiment [12], 90.1%. The growth, % of control at 10 µM turned out to be 94.2% in experiment [13]; 88.9% in experiment [14]; 89.2% in [15]; 103% in experiment [16]; 86.9% in experiment [17]; 100% in experiment [18]. Further, the growth, % of control at 10 µM in [19] was 95.8%; in experiment [20], 85.6%; in [21], 103%; in [22], 103%; in experiment [23], 99.3%.
On to `O=c1[nH]c(=O)n([C@H]2C[C@@H]3[C@@H](/C=C/[C@@H](O)COc4cccc(Cl)c4)[C@H](O)C[C@@H]3O2)cc1I`, for which, in [24], the Activity stood at 64%.
